Patent EP4635500A1, “THERAPEUTIC AGENT FOR BACTERIAL INFECTION” (Sumitomo Pharma Co., Ltd., priority 2022, dated 2024)
Read-outs that look alike come from different tables or passages of the source.

Tests used:
Enterobacterales = experiment: MIC, broth microdilution, CDC/FDA Antibiotic Resistance Isolate Bank (Example 7, Tables 8, 11, 12); type: cell-based; conditions: for MIC: read-out: MIC; for MIC50 / MIC90: carbapenemase-producing Enterobacterales; for MIC50: read-out: MIC50; for MIC90: read-out: MIC90
A. baumannii = experiment: MIC, broth microdilution, CDC/FDA Antibiotic Resistance Isolate Bank (Example 7, Tables 9, 13, 14); type: cell-based, Acinetobacter baumannii; conditions: for MIC: read-out: MIC
[1] = MIC distribution, metallo-β-lactamase-producing A. baumannii, inhibitor µg/mL in parentheses

NCC[C@H](O)C(=O)N[C@@H]1C[C@H](N)[C@@H](O[C@H]2O[C@H](CN)[C@@H](O)[C@H](O)[C@H]2O)[C@H](O)[C@H]1O[C@H]1O[C@H](CO)[C@@H](O)[C@H](N)[C@H]1O [Amikacin, amikacin]
16 µg/mL: MIC (Enterobacterales; Klebsiella pneumoniae, KUB No. 5642, AR Bank # 145) | MIC (Enterobacterales; Klebsiella pneumoniae, KUB No. 5643, AR Bank # 146) | MIC (Enterobacterales; Klebsiella pneumoniae, KUB No. 5759, AR Bank # 363) | MIC (Enterobacterales; Klebsiella pneumoniae, KUB No. 5760, AR Bank # 364) | MIC (Enterobacterales; Klebsiella pneumoniae, Klebsiella pneumoniae KUB No. 5829, AR Bank #524) | MIC50 (Enterobacterales; Metallo-β-lactamase (N = 47)) | MIC (A. baumannii; Acinetobacter baumannii, A. baumannii KUB No. 5707, AR Bank #274, OXA-66, OXA-72) | MIC (A. baumannii; Acinetobacter baumannii, A. baumannii KUB No. 5710, AR Bank #277, OXA-24, OXA-65) | MIC (A. baumannii; Acinetobacter baumannii, KUB No. 5726, AR Bank #293)
2 µg/mL: MIC (Enterobacterales; Klebsiella pneumoniae, KUB No. 5655, AR Bank # 158) | MIC (Enterobacterales; Klebsiella pneumoniae, KUB No. 5772, AR Bank # 376) | MIC (Enterobacterales; Klebsiella pneumoniae, Klebsiella pneumoniae KUB No. 5809, AR Bank #504) | MIC (Enterobacterales; Proteus mirabilis, KUB No. 5773, AR Bank # 377) | MIC (Enterobacterales; Serratia marcescens, KUB No. 5618, AR Bank # 121) | MIC (Enterobacterales; Serratia marcescens, KUB No. 5621, AR Bank # 124) | MIC (Enterobacterales; Serratia marcescens, KUB No. 5627, AR Bank # 130) | MIC (Enterobacterales; Serratia marcescens, Serratia marcescens KUB No. 5826, AR Bank #521) | MIC (A. baumannii; Acinetobacter baumannii, A. baumannii KUB No. 5714, AR Bank #281, OXA-82) | MIC (A. baumannii; Acinetobacter baumannii, KUB No. 5728, AR Bank #295) | MIC (A. baumannii; Acinetobacter baumannii, KUB No. 5746, AR Bank #313)
64 µg/mL: MIC (Enterobacterales; Serratia marcescens, Serratia marcescens KUB No. 5825, AR Bank #520) | MIC90 (Enterobacterales; Serine carbapenemase (N=61)) | MIC (A. baumannii; Acinetobacter baumannii, A. baumannii KUB No. 5598, AR Bank #101, OXA-24, OXA-65) | MIC (A. baumannii; Acinetobacter baumannii, A. baumannii KUB No. 5709, AR Bank #276, no carbapenemase genes (-)) | MIC (A. baumannii; Acinetobacter baumannii, A. baumannii KUB No. 5718, AR Bank #285, OXA-24, OXA-65) | MIC (A. baumannii; Acinetobacter baumannii, KUB No. 5720, AR Bank #287) | MIC (A. baumannii; Acinetobacter baumannii, KUB No. 5727, AR Bank #294) | MIC (A. baumannii; Acinetobacter baumannii, KUB No. 5734, AR Bank #301) | MIC (A. baumannii; Acinetobacter baumannii, KUB No. 5739, AR Bank #306) | MIC50 (A. baumannii; Acinetobacter baumannii, 55 isolates of A. baumannii, read-out: MIC50)
32 µg/mL: MIC (Enterobacterales; Klebsiella pneumoniae, KUB No. 5649, AR Bank # 152) | MIC (Enterobacterales; Klebsiella pneumoniae, KUB No. 5757, AR Bank # 361) | MIC (Enterobacterales; Klebsiella pneumoniae, Klebsiella pneumoniae KUB No. 5784, AR Bank #438) | MIC (Enterobacterales; Klebsiella pneumoniae, Klebsiella pneumoniae KUB No. 5797, AR Bank #453) | MIC (Enterobacterales; Klebsiella pneumoniae, Klebsiella pneumoniae KUB No. 5811, AR Bank #506) | MIC (Enterobacterales; Klebsiella pneumoniae, Klebsiella pneumoniae KUB No. 5830, AR Bank #525) | MIC (A. baumannii; Acinetobacter baumannii, A. baumannii KUB No. 5575, AR Bank #78, OXA-71) | MIC (A. baumannii; Acinetobacter baumannii, A. baumannii KUB No. 5585, AR Bank #88, OXA-64, NDM-1) | MIC (A. baumannii; Acinetobacter baumannii, A. baumannii KUB No. 5717, AR Bank #284, OXA-24, OXA-65) | MIC (A. baumannii; Acinetobacter baumannii, KUB No. 5722, AR Bank #259) | MIC (A. baumannii; Acinetobacter baumannii, KUB No. 5725, AR Bank #292) | MIC (A. baumannii; Acinetobacter baumannii, KUB No. 5730, AR Bank #297) | MIC (A. baumannii; Acinetobacter baumannii, KUB No. 5737, AR Bank #304) | MIC (A. baumannii; Acinetobacter baumannii, KUB No. 5738, AR Bank #305)
4 µg/mL: MIC (Enterobacterales; Klebsiella pneumoniae, Klebsiella pneumoniae KUB No. 5827, AR Bank #522) | MIC (Enterobacterales; Kluyvera ascorbata, KUB No. 5641, AR Bank # 144) | MIC (Enterobacterales; Morganella morganii, KUB No. 5554, AR Bank# 57) | MIC (Enterobacterales; Proteus mirabilis, KUB No. 5556, AR Bank# 59) | MIC (Enterobacterales; Proteus mirabilis, KUB No. 5653, AR Bank # 156) | MIC50 (Enterobacterales; Serine carbapenemase (N=61)) | MIC (A. baumannii; Acinetobacter baumannii, A. baumannii KUB No. 5713, AR Bank #280, OXA-66)
8 µg/mL: MIC (Enterobacterales; Klebsiella pneumoniae, Klebsiella pneumoniae KUB No. 5810, AR Bank #505) | MIC (Enterobacterales; Klebsiella pneumoniae, Klebsiella pneumoniae KUB No. 5828, AR Bank #523) | MIC (Enterobacterales; Proteus mirabilis, KUB No. 5775, AR Bank # 379) | MIC (Enterobacterales; Serratia marcescens, Serratia marcescens KUB No. 5822, AR Bank #517)
> 64 µg/mL: MIC (Enterobacterales; Klebsiella pneumoniae, KUB No. 5637, AR Bank # 140) | MIC (Enterobacterales; Klebsiella pneumoniae, KUB No. 5638, AR Bank # 141) | MIC (Enterobacterales; Klebsiella pneumoniae, KUB No. 5639, AR Bank # 142) | MIC (Enterobacterales; Klebsiella pneumoniae, KUB No. 5640, AR Bank # 143) | MIC (Enterobacterales; Klebsiella pneumoniae, KUB No. 5645, AR Bank # 148) | MIC (Enterobacterales; Klebsiella pneumoniae, KUB No. 5650, AR Bank # 153) | MIC (Enterobacterales; Klebsiella pneumoniae, Klebsiella pneumoniae KUB No. 5812, AR Bank #507) | MIC (Enterobacterales; Proteus mirabilis, KUB No. 5656, AR Bank # 159) | MIC (Enterobacterales; Salmonella enterica, Salmonella Senftenberg, KUB No. 5624, AR Bank # 127) | MIC90 (Enterobacterales; Metallo-β-lactamase (N = 47)) | MIC (A. baumannii; Acinetobacter baumannii, A. baumannii KUB No. 5580, AR Bank #83, OXA-23, OXA-69, NDM-1) | MIC (A. baumannii; Acinetobacter baumannii, A. baumannii KUB No. 5599, AR Bank #102, OXA-66) | MIC (A. baumannii; Acinetobacter baumannii, A. baumannii KUB No. 5706, AR Bank #273, OXA-23, OXA-66) | MIC (A. baumannii; Acinetobacter baumannii, A. baumannii KUB No. 5708, AR Bank #275, OXA-23, OXA-66) | MIC (A. baumannii; Acinetobacter baumannii, A. baumannii KUB No. 5711, AR Bank #278, OXA-23, OXA-66) | MIC (A. baumannii; Acinetobacter baumannii, A. baumannii KUB No. 5712, AR Bank #279, OXA-23, OXA-66) | MIC (A. baumannii; Acinetobacter baumannii, A. baumannii KUB No. 5715, AR Bank #282, OXA-23, OXA-66) | MIC (A. baumannii; Acinetobacter baumannii, A. baumannii KUB No. 5716, AR Bank #283, OXA-23, OXA-66) | MIC (A. baumannii; Acinetobacter baumannii, KUB No. 5719, AR Bank #286) | MIC (A. baumannii; Acinetobacter baumannii, KUB No. 5721, AR Bank #288) | MIC (A. baumannii; Acinetobacter baumannii, KUB No. 5723, AR Bank #290) | MIC (A. baumannii; Acinetobacter baumannii, KUB No. 5724, AR Bank #291) | MIC (A. baumannii; Acinetobacter baumannii, KUB No. 5729, AR Bank #296) | MIC (A. baumannii; Acinetobacter baumannii, KUB No. 5731, AR Bank #298) | MIC (A. baumannii; Acinetobacter baumannii, KUB No. 5732, AR Bank #299) | MIC (A. baumannii; Acinetobacter baumannii, KUB No. 5733, AR Bank #300) | MIC (A. baumannii; Acinetobacter baumannii, KUB No. 5735, AR Bank #302) | MIC (A. baumannii; Acinetobacter baumannii, KUB No. 5736, AR Bank #303) | MIC (A. baumannii; Acinetobacter baumannii, KUB No. 5740, AR Bank #307) | MIC (A. baumannii; Acinetobacter baumannii, KUB No. 5741, AR Bank #308) | MIC (A. baumannii; Acinetobacter baumannii, KUB No. 5742, AR Bank #309) | MIC (A. baumannii; Acinetobacter baumannii, KUB No. 5743, AR Bank #310) | MIC (A. baumannii; Acinetobacter baumannii, KUB No. 5744, AR Bank #311) | MIC80 (A. baumannii; Acinetobacter baumannii, 55 isolates of A. baumannii, read-out: MIC80) | MIC90 (A. baumannii; Acinetobacter baumannii, 55 isolates of A. baumannii, read-out: MIC90)
1 µg/mL: MIC (Enterobacterales; Morganella morganii, KUB No. 5630, AR Bank # 133) | MIC (Enterobacterales; Proteus mirabilis, KUB No. 5652, AR Bank # 155) | MIC (Enterobacterales; Providencia rettgeri, KUB No. 5579, AR Bank # 82) | MIC (Enterobacterales; Serratia marcescens, KUB No. 5588, AR Bank # 91) | MIC (Enterobacterales; Serratia marcescens, KUB No. 5596, AR Bank # 99) | MIC (Enterobacterales; Serratia marcescens, KUB No. 5619, AR Bank # 122) | MIC (Enterobacterales; Serratia marcescens, KUB No. 5620, AR Bank # 123) | MIC (Enterobacterales; Serratia marcescens, KUB No. 5628, AR Bank # 131) | MIC (A. baumannii; Acinetobacter baumannii, A. baumannii KUB No. 5567, AR Bank #70, OXA-58, OXA-100) | MIC (A. baumannii; Acinetobacter baumannii, KUB No. 5745, AR Bank #312)
1: Number of isolates at MIC 32 µg/mL (A. baumannii; [1]) | Number of isolates at MIC >64 µg/mL (A. baumannii; [1])
2: Number of isolates at MIC 2 µg/mL (A. baumannii; [1])
0.5 µg/mL: MIC (Enterobacterales; Klebsiella pneumoniae, KUB No. 5657, AR Bank # 160)
